Consider seven molecules from PubChem BioAssay (NCI).

Holding throughout (test): inhibition of tumour cell growth, NCI panel, 48 h
In assay [1] the test system is A498 renal.
The test system of assay [2] is A549 NSCLC.
The subject of assay [3] is ACHN renal.
Assay [4] has as its system MCF7 breast.
Assay [5] relates to OVCAR-8 ovarian.
Assay [6] relates to SR leukemia.
For assay [7], the system named is TK-10 renal.
The test system of assay [8] is U251 CNS.
For assay [9], the system named is UACC-62 melanoma.
For assay [10], the system named is UO-31 renal.

The structures appear in SMILES notation. Where “and” joins values, the source holds several entries; their conditions need not be identical. Equal entries are not always repeated.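 Tested at 5 concentrations; 48 h exposure; 96-well plates; endpoints linearly interpolated, else capped at highest concentration. GI50 is the concentration that inhibits growth by half. At the TGI there is no net growth.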

Take `CC[C@@]1(O)C(=O)NCc2c1cc1n(c2=O)Cc2cc3cc4c(cc3nc2-1)OCO4`: the GI50 was 0.963 µM in assay [1]; 0.618 µM in [2]; 0.398 µM in assay [3]; 0.217 µM in assay [4]; 0.391 µM in assay [5]; below 0.0176 µM in assay [6]. For the same molecule, the GI50 in assay [7] was 69.9 µM; in [8], 0.408 µM; in assay [9], 0.243 µM; in assay [10] it was 1.48 µM. For the same molecule, the TGI in [1] was 8.73 µM; in [2] it was above 73.4 µM; in [3], above 13.2 µM; in [4] it was above 100 µM; in [5], 6.99 µM; in assay [6], 0.2 µM. Also, the TGI is above 100 µM in assay [7], 12.9 µM in assay [8], 29.4 µM in assay [9] and above 33.1 µM in assay [10].

As for `C=CCOc1cc2c(cc1C(C)c1ccc(OC)cc1)OCO2` (centres undefined), the TGI in assay [1] is above 100 µM; in [2] it was above 100 µM; in assay [3] it was above 100 µM; in [4], above 100 µM; in [5], 5.97 µM; in assay [6], 0.695 µM. For the same molecule, the TGI was above 100 µM in assay [7], above 100 µM in [8], above 87.5 µM in assay [9] and above 87.8 µM in assay [10].

As for `[N-]=[N+]=Nc1ncc(-c2ccc(C(F)(F)F)cc2)c(NC2CCCCCC2)n1`, the GI50 in assay [1], in assay [2], in [3], in assay [4], in assay [5] and in assay [6] was above 10 µM throughout. Also, the GI50 in assay [7], in [8], in [9] and in [10] was above 10 µM each time. The TGI in assay [1], in [2], in assay [3], in assay [4], in assay [5] and in assay [6] was above 10 µM in each case. Moreover, the TGI in assay [7], in [8], in assay [9] and in [10] was above 10 µM throughout.

Consider `COC(=O)Nc1ccc2ccc3c(NC(=O)OC)ccc4ccc1c2c43` (tested in a mixture with another compound), for which the GI50 is 8.26 µM in assay [1]; 7.78 µM in assay [2]; 6.68 µM in [3]; 27.1 µM in [4]; 14.3 µM in [5]; 2.51 µM in [6]. For the same molecule, the GI50 in assay [7] is 16.9 µM; in [8], 12 µM; in assay [9], 5.83 µM; in assay [10], 5.21 µM. Also, the TGI is above 50 µM in [1]; above 50 µM in [2]; 15 µM in assay [3]; above 50 µM in assay [4]; above 50 µM in assay [5]; above 50 µM in assay [6]. Moreover, the TGI is above 50 µM in assay [7], above 50 µM in assay [8], above 50 µM in assay [9] and 18.3 µM in assay [10].

Regarding `COc1ccc(NC2=C(Sc3nc(C)cc(C)n3)C(=O)N(Cc3ccccc3)C2=O)cc1Cl`, the GI50 in assay [1] is 62.1 µM; in assay [2], above 160 µM; in assay [3] it was above 160 µM; in assay [4], 56.8 µM; in [5] it was 99.2 µM; in assay [6], 37.5 µM. In addition, the GI50 in assay [7] is above 160 µM; in assay [8], 55 µM; in assay [9], 22.5 µM; in assay [10] it was above 160 µM. Also, the TGI in assay [1], in [2], in assay [3], in assay [4], in assay [5] and in [6] was above 160 µM in each case. The TGI in [7], in assay [8], in assay [9] and in assay [10] was above 160 µM in each case.

As to `COc1cc(N2CCC(N(C)C)CC2)ccc1Nc1ncc(Cl)c(Nc2ccccc2P(C)(C)=O)n1`, the GI50 in assay [1] is 0.128 µM and 0.086 µM; in [2], 0.617 µM and 0.218 µM; in assay [3], 0.972 µM; in assay [4], 0.202 µM and 0.0522 µM; in [5] it was 2.77 µM and 0.926 µM; in [6], < 0.0113 µM and 0.0295 µM. Further, the GI50 in assay [7] is 0.491 µM and 0.196 µM; in [8], 1.42 µM and 0.713 µM; in assay [9] it was 3.07 µM and 0.775 µM; in assay [10], 1.82 µM and 0.752 µM. Also, the TGI was 0.476 µM and 0.53 µM in assay [1]; 8.54 µM and > 7.6 µM in assay [2]; above 9.65 µM in assay [3]; 21.6 µM and > 10 µM in assay [4]; 23.4 µM and > 10 µM in [5]; 3.02 µM and 2.62 µM in assay [7]. Further, the TGI in [8] was 9.94 µM and > 10 µM; in assay [9], 20.2 µM and > 5.16 µM; in assay [10], 4.73 µM and 4.59 µM.

Consider `N#Cc1c(NC(=O)c2cccs2)[n+]([O-])c2ccccc2[n+]1[O-]`, for which the GI50 in assay [1] was above 100 µM; in assay [2], above 100 µM; in assay [3] it was above 100 µM; in assay [4], above 100 µM; in assay [5], 63.4 µM; in assay [6] it was above 100 µM. Also, the GI50 in assay [7], in assay [8], in assay [9] and in assay [10] was above 100 µM throughout. The TGI in [1], in [2], in assay [3], in assay [4], in [5] and in [6] was above 100 µM each time. In addition, the TGI in [7], in assay [8], in [9] and in assay [10] was above 100 µM throughout.
